Reference: patent US10294248B2, “Beta-lactamase inhibitors” (VenatoRx Pharmaceuticals, Inc., priority 2013, dated 2019)

How the values were obtained:
[1] = molecular target: T1, SHV-5 β-lactamase (Class A ESBL) (Klebsiella pneumoniae, UniProt P0A3M1); test: β-Lactamase inhibition, SHV-5; assay type: biochemical
T1 construct: made in house; host or cells: E. coli BL21(DE3)
Protocol: (§1) For SHV-5, Kpc-2, p99AmpC and OXA-1 β-lactamases, E. coli BL21(DE3) bacterial cells carrying expression plasmids (expressed as native untagged proteins) for the individual β-lactamases were grown in 1 L of Superbroth (Teknova Inc. Hollister, Calif.) supplemented with 100 μg/ml kanamycin selection and 1×5052 (0.5% glycerol, 0.05% glucose and 0.2% α-lactose) at 35° C. for 18-20 hours. Cells were harvested by centrifugation (4,000×g, 4° C., 20 min), resuspended in 50 ml of 10 mM HEPES pH 7.5 ( 1/20 of the initial volume). The cells were lysed by sonication (5 pulses of 45 seconds) at 45 W on ice. The lysates were clarified by centrifugation at 10,000×g for 40 minutes at 4° C. Samples were diluted 5-fold in 50 mM sodium acetate pH 5.0, stored overnight at 4° C., after which they were centrifuged at 10,000×g for 30 minutes to clarify, and filtered through 0.45 μm filters. The samples were loaded onto a 5 ml Capto S sepharose cation exchange column (GE Healthcare) pre-equilibrated with 50 mM sodium acetate pH 5.0. The column was washed with 5 column volumes of 50 mM sodium acetate pH 5.0 to wash out unbound protein and a linear gradient of NaCl (0 to 500 mM) was used to elute the protein (over 16 CV) from the column. Fractions were assayed for β-lactamase activity using Centa (Calbiochem, Gibbstown, N.J.) or Nitrocefin (EMD Millipore chemicals, Darmstadt, Germany) as a reporter β-lactamase substrate for activity in the isolated fractions. Active fractions were pooled, concentrated and further purified by gel filtration chromatography on a Superdex 75 prep grade gel filtration column (GE Healthcare, Piscataway, N.J.) pre-equilibrated in 50 mM Hepes pH 7.5, 150 mM NaCl. Active fractions were pooled concentrated, quantitated by BCA protein determination (Thermo Scientific, Rockford, Ill.), dialyzed into PBS and frozen at −80° C. in 20% glycerol until use.
(§2) An equal volume of diluted enzyme stock was added, and the plates were incubated at 37° C. for 15 min. Nitrocefin was used as substrate for p99 AmpC, VIM-2 and OXA-1 and dispensed into each well at a final concentration of 100 μM. Absorbance at 486 nm was immediately monitored for 10 min using a Biotek Powerwave XS2 microplate spectrophotometer using the GEN5 software package (Biotek Instruments, Winooski Vt.). In an analogous fashion, imipenem was used as substrate for Kpc-2 and Cefotaxime was used for SHV-5, while changes in absorbance upon hydrolysis of the β-lactam ring were monitored at 300 nm and 260 nm respectively in UV-transparent 96-well microtiter assay plates. Maximum rates of hydrolysis were compared to those in control wells (without inhibitors), and percentages of enzyme inhibition were calculated for each concentration of inhibitor. The concentration of inhibitor needed to reduce the initial rate of hydrolysis of substrate by 50% (IC50) was calculated as the residual activity of β-lactamase at 486 nm using GraFit version 7 kinetics software package (Erithacus Software, Surrey, UK).
(§3) Using the methodology described above, examples of the current invention were evaluated for their ability to inhibit β-lactamase enzymes from all four Ambler classifications (A through D). […] NT=Not tested.

[2] = molecular target: T2, KPC-2 β-lactamase (Class A carbapenemase) (Klebsiella pneumoniae, UniProt Q9F663); test: β-Lactamase inhibition, KPC-2; assay type: biochemical; conditions: imipenem substrate, 300 nm; 15 min preincubation at 37° C., PBS pH 7.4
T2 construct: made in house; host or cells: E. coli BL21(DE3)
Protocol: as §1, §2, §3

[3] = molecular target: T3, VIM-2 metallo-β-lactamase (Class B) (Pseudomonas aeruginosa, UniProt Q9K2N0); test: β-Lactamase inhibition, VIM-2; assay type: biochemical; conditions: nitrocefin 100 μM, 486 nm; 15 min preincubation at 37° C., PBS pH 7.4
T3 construct: made in house; host or cells: E. coli BL21(DE3)
Protocol: For Vim-2 metallo β-lactamase, the procedure was identical with the following exceptions, first the protein was not pH adjusted to pH 5 with 50 mM sodium acetate, second, the chromatography step was changed to a 5 ml Q sepharose anion exchange column pre-equilibrated with 50 mM Hepes pH 7.5, and elution of the protein was achieved by a linear gradient of NaCl (0-600 mM). Finally, the VIM-2 purification required a second run (3rd step) on the Q sepharose anion exchange column to achieve acceptable purity (>90%).
as §2, §3

[4] = molecular target: T4, p99 AmpC β-lactamase (Class C) (Enterobacter cloacae, UniProt P05364); test: β-Lactamase inhibition, p99 AmpC; assay type: biochemical
T4 construct: made in house; host or cells: E. coli BL21(DE3)
Protocol: as §1, §2, §3

[5] = tested on: E. coli ESBL4 expressing CTX-M-15; test: Broth microdilution MIC, E. coli ESBL4 CTX-M-15; assay type: cell-based; conditions: fixed 4 μg/mL ceftazidime; CAMHB, 16-20 hours at 37° C.
From the text: (§4) To determine the ability of test compounds to potentiate the inhibition of the growth of bacterial strains that produce beta-lactamase enzymes, classic cell based broth microdilution MIC assays were employed. Six bacteria strains producing beta-lactamase enzymes were used: E. coli expressing the Class A Extended Spectrum Beta-Lactamase (ESBL) CTX-M-15, E. cloacae expressing the Class C P99, K. pneumoniae expressing the Class A carbapenemase KPC-3, P. aeruginosa expressing the Class B carbapenemase VIM-2, K. pneumoniae expressing the class A carbapenemase KPC-2 and the class B carbapenemase VIM-4, and S. aureus producing the Class A penicillinase PC-1. The assay was conducted in Cation Adjusted Mueller Hinton Broth (CAMHB, BD #212322, BD Diagnostic Systems, Sparks, Md.). Bacteria strains were grown for 3-5 hours in CAMBH broth. Test compounds (Examples 1-30) were added to a microtiter plate in 2-fold serial dilutions in CAMHB in a final concentration range of 32 μg/mL to 0.25 μg/ml. An overlay of CAMHB containing a Beta-lactam was added to the compounds at a final static concentration of 4 μg/ml. […] In addition to the titration of test compounds the MICs of a panel of control beta-lactams is also tested to ensure the strains are behaving consistently from test to test. Once the test compound and antibiotics are added the plates can be inoculated according to CLSI broth microdilution method. After inoculation the plates are incubated for 16-20 hours at 37° C. then the Minimal Inhibitory Concentration (MIC) of the test compound is determined visually.
(§5) Using the methodology described above, examples of the current invention were evaluated for their ability to inhibit the growth of β-lactamase-producing bacteria in the presence of a β-lactam antibiotic.
(§6) Using the methodology described above in EXAMPLE III, exemplary compounds for Formula I or Formula Ia were evaluated for their ability to inhibit the growth of β-lactamase producing bacteria in the presence of a β-lactam antibiotic.

[6] = tested on: E. cloacae 144200 expressing Class C P99 AmpC; test: Broth microdilution MIC, E. cloacae 144200 p99 AmpC; assay type: cell-based; conditions: fixed 4 μg/mL ceftazidime; CAMHB, 16-20 hours at 37° C.
From the text: as §4, §5, §6

[7] = tested on: K. pneumoniae 156319 expressing KPC-3; test: Broth microdilution MIC, K. pneumoniae 156319 KPC-3; assay type: cell-based; conditions: for MIC of example compound in presence of fixed β-lactam: Fixed Mero, K. P. 156319 KPC-3: fixed 4 μg/mL meropenem, CAMHB, 16-20 hours at 37° C.
From the text: as §4, §5, §6

[8] = tested on: P. aeruginosa Ps296 expressing VIM-2; test: Broth microdilution MIC, P. aeruginosa Ps296 VIM-2; assay type: cell-based; conditions: for MIC of example compound in presence of fixed β-lactam: Fixed Mero, P. aerug. Ps296 VIM-2: fixed 4 μg/mL meropenem, CAMHB, 16-20 hours at 37° C.
From the text: as §4, §5, §6

[9] = tested on: K. pneumoniae A-1797 expressing KPC-2 and VIM-4; test: Broth microdilution MIC, K. pneumoniae A-1797 KPC-2/VIM-4; assay type: cell-based; conditions: for MIC of example compound in presence of fixed β-lactam: Fixed Mero, K. P. A-1797 KPC-2 VIM-4: fixed 4 μg/mL meropenem, CAMHB, 16-20 hours at 37° C.
From the text: as §4, §5, §6

[10] = tested on: S. aureus MSSA-7 producing penicillinase PC-1; test: Broth microdilution MIC, S. aureus MSSA-7 PC-1; assay type: cell-based
From the text: as §4, §5, §6

T4 sequence (P05364 21-381): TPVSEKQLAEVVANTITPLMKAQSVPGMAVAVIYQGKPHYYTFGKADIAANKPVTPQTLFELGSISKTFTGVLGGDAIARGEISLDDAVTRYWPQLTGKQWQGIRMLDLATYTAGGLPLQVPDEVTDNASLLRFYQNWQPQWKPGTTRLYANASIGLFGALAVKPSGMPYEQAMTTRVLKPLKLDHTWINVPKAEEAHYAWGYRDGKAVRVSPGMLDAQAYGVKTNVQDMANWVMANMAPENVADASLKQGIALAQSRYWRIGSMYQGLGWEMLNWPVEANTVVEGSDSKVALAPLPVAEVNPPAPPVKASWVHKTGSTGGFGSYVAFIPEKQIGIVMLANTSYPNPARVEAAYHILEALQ
T2 sequence (Q9F663 25-293, looked up): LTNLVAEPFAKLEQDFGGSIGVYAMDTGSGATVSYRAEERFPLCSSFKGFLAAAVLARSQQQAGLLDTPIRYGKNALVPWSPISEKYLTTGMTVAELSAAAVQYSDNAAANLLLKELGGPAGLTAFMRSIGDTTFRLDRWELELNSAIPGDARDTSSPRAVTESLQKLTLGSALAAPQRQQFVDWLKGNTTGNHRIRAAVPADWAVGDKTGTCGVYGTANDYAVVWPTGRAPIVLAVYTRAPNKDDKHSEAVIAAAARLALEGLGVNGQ
T1 sequence (P0A3M1 22-286): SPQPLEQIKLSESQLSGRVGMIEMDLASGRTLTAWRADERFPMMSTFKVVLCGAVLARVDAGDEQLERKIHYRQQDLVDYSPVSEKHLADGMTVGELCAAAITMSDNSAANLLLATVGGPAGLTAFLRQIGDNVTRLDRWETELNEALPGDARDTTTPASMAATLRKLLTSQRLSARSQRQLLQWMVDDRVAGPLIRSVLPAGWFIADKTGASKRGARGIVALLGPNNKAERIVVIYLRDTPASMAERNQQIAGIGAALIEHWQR

## N=C(N)NCCN1CCN(CC(=O)N[C@H]2Cc3cccc(C(=O)O)c3OB2O)C(=O)C1 [Example 38, 3-{2-[4-(2-Guanidino-ethyl)-2-oxo-piperazin-1-yl]-acetylamino}-2-hydroxy-3,4-dihydro-2H-benzo[e][1,2]oxaborinine-8-carboxylic acid]
[1]
  IC50: 100 to 1000 nM
[2]
  IC50: 1000 to 10000 nM
[3]
  IC50: 1 to 10 µM
[4]
  IC50: < 100 nM
[5]
  MIC of example compound in presence of fixed β-lactam: Fixed CAZ, E. coli ESBL4 CTX-M-15: C (the MIC in the presence of <4 μg/mL of a β-lactamase inhibitor)
[6]
  MIC of example compound in presence of fixed β-lactam: Fixed CAZ, E. cl. 144200 p99 AmpC: C (the MIC in the presence of <4 μg/mL of a β-lactamase inhibitor)
[7]
  MIC of example compound in presence of fixed β-lactam: Fixed Mero, K. P. 156319 KPC-3: C (the MIC in the presence of <4 μg/mL of a β-lactamase inhibitor)
[8]
  MIC of example compound in presence of fixed β-lactam: Fixed Mero, P. aerug. Ps296 VIM-2: B (the MIC in the presence of between 8 and 32 μg/mL of a β-lactamase inhibitor)
[9]
  MIC of example compound in presence of fixed β-lactam: Fixed Mero, K. P. A-1797 KPC-2 VIM-4: A (an MIC of the fixed β-lactam antibiotic in the presence of >32 μg/mL of a β-lactamase inhibitor)

## NCCCN1CCC(CC(=O)N[C@H]2Cc3cccc(C(=O)O)c3OB2O)CC1 [Example 42, 3-{2-[1-(3-Amino-propyl)-piperidin-4-yl]-acetylamino}-2-hydroxy-3,4-dihydro-2H-benzo[e][1,2]oxaborinine-8-carboxylic acid]
[1]
  IC50: < 100 nM
[2]
  IC50: < 100 nM
[3]
  IC50: 1 to 10 µM
[4]
  IC50: < 100 nM
[5]
  MIC of example compound in presence of fixed β-lactam: Fixed CAZ, E. coli ESBL4 CTX-M-15: C (the MIC in the presence of <4 μg/mL of a β-lactamase inhibitor)
[6]
  MIC of example compound in presence of fixed β-lactam: Fixed CAZ, E. cl. 144200 p99 AmpC: C (the MIC in the presence of <4 μg/mL of a β-lactamase inhibitor)
[7]
  MIC of example compound in presence of fixed β-lactam: Fixed Mero, K. P. 156319 KPC-3: C (the MIC in the presence of <4 μg/mL of a β-lactamase inhibitor)
[8]
  MIC of example compound in presence of fixed β-lactam: Fixed Mero, P. aerug. Ps296 VIM-2: B (the MIC in the presence of between 8 and 32 μg/mL of a β-lactamase inhibitor)
[9]
  MIC of example compound in presence of fixed β-lactam: Fixed Mero, K. P. A-1797 KPC-2 VIM-4: A (an MIC of the fixed β-lactam antibiotic in the presence of >32 μg/mL of a β-lactamase inhibitor)
[10]; fixed 4 μg/mL piperacillin, CAMHB, 16-20 hours at 37° C.
  MIC of example compound in presence of fixed β-lactam: Fixed Pip, S. aureus MSSA-7 PC-1: C (the MIC in the presence of <4 μg/mL of a β-lactamase inhibitor)

## C[C@@H](O)[C@H]1C(=O)N2C(C(=O)O)=C(S[C@@H]3CN[C@H](C(=O)N(C)C)C3)[C@H](C)[C@H]12 [Meropenem, reference compound]
[7]; Klebsiella pneumoniae, read-out: MIC alone, K. pneumoniae expressing KPC-3
  MIC: > 128 µg/mL
[8]; Pseudomonas aeruginosa, read-out: MIC alone, P. aeruginosa expressing VIM-2
  MIC: 16 µg/mL
[9]; Klebsiella pneumoniae, read-out: MIC alone, K. pneumoniae expressing KPC-2 and VIM-4
  MIC: 64 µg/mL

## CCN1CCN(C(=O)N[C@@H](C(=O)N[C@@H]2C(=O)N3[C@@H]2SC(C)(C)[C@@H]3C(=O)O)c2ccccc2)C(=O)C1=O [Piperacillin, reference compound]
[10]; Staphylococcus aureus, MSSA, partner antibiotic alone, no β-lactamase inhibitor
  MIC: 64 µg/mL
